Experimental data as given in paper PMC5464911, “SEL120-34A is a novel CDK8 inhibitor active in AML cells with high levels of serine phosphorylation of STAT1 and STAT5 transactivation domains” (Oncotarget, 2017).

Experiments:
[1] = tested on: ME-1; assay: Extended viability test (AlamarBlue); type: cell-based; conditions: extended viability assay
[2] = tested on: MOLM16; assay: Extended viability test (AlamarBlue); type: cell-based; conditions: extended viability assay
[3] = tested on: GDM-1; assay: Extended viability test (AlamarBlue); type: cell-based; conditions: Homo sapiens, extended viability assay
[4] = tested on: KG-1; assay: Extended viability test (AlamarBlue); type: cell-based; conditions: Homo sapiens, extended viability assay
[5] = tested on: EOL-1; assay: Extended viability test (AlamarBlue); type: cell-based; conditions: Homo sapiens, EOL1; extended viability assay
[6] = tested on: Oci-AML5; assay: Extended viability test (AlamarBlue); type: cell-based; conditions: Homo sapiens, OCI-AML-5; extended viability assay
[7] = tested on: MV4-11; assay: Extended viability test (AlamarBlue); type: cell-based; conditions: Homo sapiens, extended viability assay
[8] = tested on: Oci-AML3; assay: Extended viability test (AlamarBlue); type: cell-based; conditions: Homo sapiens, OCI-AML-3; extended viability assay
[9] = tested on: Kasumi-1; assay: Extended viability test (AlamarBlue); type: cell-based; conditions: Homo sapiens, extended viability assay
[10] = tested on: MOLM13; assay: Extended viability test (AlamarBlue); type: cell-based; conditions: Homo sapiens, MOLM-13; extended viability assay
[11] = tested on: PL-21; assay: Extended viability test (AlamarBlue); type: cell-based; conditions: extended viability assay
[12] = tested on: SIG-M5; assay: Extended viability test (AlamarBlue); type: cell-based; conditions: Homo sapiens, extended viability assay
[13] = tested on: SKM-1; assay: Extended viability test (AlamarBlue); type: cell-based; conditions: Homo sapiens, extended viability assay
[14] = tested on: AML cell lines; assay: Broad profiling in a panel of AML cell lines (extended viability tests); type: cell-based; conditions: SKNO-1, KG-1, HEL-60, MOLM-16, MV-4-11, OciAML-2, MOLM-6 and OciAML-3; read-out: GI50 in sensitive responder cell lines
Method: Mean GI50 (day 10) is shown and plotted on the graph (n=3). (D) Levels of phosphorylated STAT5 S726 and […] in AML cells from the panel C were measured by WB. Densitometry for STAT5 S726 and […] signals is shown and plotted on the graph. Cell lines from the panel D were divided into two classes based on the sensitivity to CDK8 inhibitors treatment (responders GI50<1 μM and non-responder GI50>1 μM), mean levels of STAT5 S726 (E) or STAT1 S727 (F) in selected cell lines measured by densitometry were presented on scatter plots. Differences between responder and non-responder were assessed by t-tests (p value is shown).
Cells grown in suspension were plated onto 96-well culture dishes in triplicate at 20000 cells per well in 200 μl of their culture medium, except Kasumi-1 cells, which were plated at 60 000/well. Cells were incubated in the presence of vehicle, 1 μM docetaxel (positive control, Santa Cruz Biotechnology) or 6 serially - diluted concentrations of tested compound. The compound effect was determined by AlamarBlue measurement. On days 3, 6-7 and 10, an equal volume from all wells was also split-back with fresh media supplemented with tested compound, resulting in a cell density for the vehicle well that matched the initial seeding density. […]

[15] = target: CDK8/CycC (Homo sapiens, UniProt P49336); assay: Radiometric protein kinase assay (PanQinase, ProQinase)
Source text: (§1) A radiometric protein kinase assay (PanQinase® Activity Assay, ProQinase) was used for measuring activities of CDK8/CycC and CDK19/CycC protein kinases.

[16] = target: CDK19/CycC (Homo sapiens, UniProt Q9BWU1); assay: as above
Source text: as §1

[17] = tested on: STAT5 S726 and Y694; assay: STAT phosphorylation in SET-2 cells (JAK2 V617F), WB; type: cell-based; conditions: 24 hours
Method: (B) SEL120-34A inhibits IFN-dependent phosphorylation of STAT1 S727. HCT-116 cells stimulated with IFNg for 4 h were treated with increasing doses of SEL120-34A, Flavopiridol (F) or vehicle DMSO (C) to determine changes in the phosphorylation of STAT1 S727 and Y701, as measured by WB. (*) unspecific band. (C) SEL120-34A inhibits serine phosphorylation of STAT1 S727 and STAT5 S726, whereas Ruxolitinib inhibits tyrosine phosphorylation of STAT1 Y701 and STAT5 Y694 in JAK2 V617F cells. SET-2 cells were treated with Ruxolitinib, SEL120-34A or vehicle DMSO (C) for 24 hours and protein levels of pS727, pY701 STAT1 and pS726, pY694 STAT5 were measured by WB. […]
0,1% SDS; 20 mM β-glicerol phosphate; 5 mM NaF; cat. # sc835), α-STAT5-pS726 (1:1000; Abcam, cat. # 1 mM Na3VO4) supplemented with protease inhibitors ab128896), α-STAT5-pY694 (1:1000; Cell Signaling, (Santa Cruz Biotechnology). […] Protein concentration in lysates (1:20000; Sigma, cat. # G9545) was measured by the Bradford assay and adjusted to achieve the same final concentration in each well (20-30 mRNA extraction from xenograft tissue μg protein/well). […] Prior to microarray analyses, the quality of the incubation with secondary donkey anti-rabbit antibodies RNA samples was determined using an Agilent 2100 conjugated to HRP, used at 1:4000 (Cell Signaling, Bioanalyzer (Agilent Technologies, CA, USA). […]

[18] = tested on: MOLM-14 cell line; parameters: method as in PMID 26416749; conditions: previously identified; cited from earlier work
[19] = tested on: RNAP II CTD S2 and S5; assay: RNAP II CTD phosphorylation in HCT-116 cells (WB); type: cell-based; conditions: SEL120-34A up to 2.5 μM
Method: 0,1% SDS; 20 mM β-glicerol phosphate; 5 mM NaF; cat. # sc835), α-STAT5-pS726 (1:1000; Abcam, cat. # 1 mM Na3VO4) supplemented with protease inhibitors ab128896), α-STAT5-pY694 (1:1000; Cell Signaling, (Santa Cruz Biotechnology). Tumor samples were cat. #C11C5), α-tubulin (1:4000; Sigma, cat. # T5192) homogenized in 15 sec intervals and kept on ice between and β-actin (1:4000, Sigma cat. # A2066) or GAPDH homogenization cycles. Protein concentration in lysates (1:20000; Sigma, cat. # G9545) was measured by the Bradford assay and adjusted to achieve the same final concentration in each well (20-30 mRNA extraction from xenograft tissue μg protein/well). […] A scoop Unless indicated otherwise, membranes were blocked of a tumor (~25mg) was homogenized with a pestle for 45 min with 2% fat-free dried milk (Rovema, Poland) under liquid nitrogen and immediately processed in Tris-buffered saline (TBS) + 0.05% Tween (TBST), according to the RNeasy Mini Kit protocol (Qiagen). incubated overnight at 4°C with primary antibodies diluted The RNA concentration was measured by a NanoDrop into 2% milk in TBST and washed four times for 10 min spectrophotometer and stored at -80°C for downstream with TBST. […]
with the activities of CDK9 in cells. […] Protein levels of RNAP II CTD pS2, pS5, cMYC and GAPDH were measured by WB.

Sequence of CDK8/CycC (P49336 whole entry): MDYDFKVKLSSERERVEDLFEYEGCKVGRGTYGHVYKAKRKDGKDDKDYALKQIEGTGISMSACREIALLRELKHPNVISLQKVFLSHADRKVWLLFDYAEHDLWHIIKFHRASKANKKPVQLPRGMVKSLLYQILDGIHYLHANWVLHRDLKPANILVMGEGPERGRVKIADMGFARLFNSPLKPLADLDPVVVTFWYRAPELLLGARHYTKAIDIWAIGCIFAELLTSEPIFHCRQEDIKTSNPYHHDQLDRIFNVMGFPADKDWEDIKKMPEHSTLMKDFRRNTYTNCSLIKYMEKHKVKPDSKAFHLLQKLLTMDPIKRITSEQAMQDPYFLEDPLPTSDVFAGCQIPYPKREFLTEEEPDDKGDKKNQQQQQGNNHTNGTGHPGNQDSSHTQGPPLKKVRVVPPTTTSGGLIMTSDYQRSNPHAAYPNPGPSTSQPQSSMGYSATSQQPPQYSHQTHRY
Sequence of CDK8/CycC (P24863 whole entry partner): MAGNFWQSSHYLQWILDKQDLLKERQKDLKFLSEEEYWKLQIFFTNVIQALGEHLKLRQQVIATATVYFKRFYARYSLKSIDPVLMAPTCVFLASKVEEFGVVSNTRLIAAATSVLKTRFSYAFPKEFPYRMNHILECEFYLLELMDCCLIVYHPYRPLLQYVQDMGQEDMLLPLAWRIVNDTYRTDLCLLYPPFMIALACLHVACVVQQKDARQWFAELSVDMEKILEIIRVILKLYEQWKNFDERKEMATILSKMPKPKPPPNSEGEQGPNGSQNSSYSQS
Sequence of CDK19/CycC (Q9BWU1 whole entry): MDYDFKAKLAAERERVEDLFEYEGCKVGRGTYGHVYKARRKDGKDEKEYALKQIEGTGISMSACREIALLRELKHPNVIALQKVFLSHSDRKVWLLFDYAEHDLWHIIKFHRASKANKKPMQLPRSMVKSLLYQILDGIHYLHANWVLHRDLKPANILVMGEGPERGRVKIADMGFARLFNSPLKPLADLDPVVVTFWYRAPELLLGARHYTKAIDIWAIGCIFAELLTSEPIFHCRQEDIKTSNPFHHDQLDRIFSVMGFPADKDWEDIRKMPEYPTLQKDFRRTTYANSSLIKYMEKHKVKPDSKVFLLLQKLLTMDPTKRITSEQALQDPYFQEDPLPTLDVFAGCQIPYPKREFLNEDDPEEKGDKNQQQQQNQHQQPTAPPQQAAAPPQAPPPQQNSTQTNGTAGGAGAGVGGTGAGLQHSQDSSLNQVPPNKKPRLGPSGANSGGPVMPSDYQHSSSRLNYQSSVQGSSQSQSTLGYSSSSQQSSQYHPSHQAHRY
Sequence of CDK19/CycC (P24863 whole entry partner): as the sequence (P24863 whole entry partner) above

With `CN1CCN(C(=O)c2ccc3cc(CCNc4ncnc5ccc(C#N)cc45)ccc3c2)CC1` [Senexin B, reference compound] the GI50 [1] was 170 nM, the GI50 [2] was 340 nM and the GI50 [3] was 270 nM. It also gave a GI50 [4] of 150 nM, a GI50 [5] of 960 nM and a GI50 [6] of 70 nM. The GI50 [7] was 230 nM, the GI50 [8] was 360 nM and the GI50 [9] was 5000 nM. It also gave a GI50 [10] of 5000 nM, a GI50 [11] of 2600 nM and a GI50 [12] of 5000 nM. The GI50 [13] was 5000 nM, the GI50 [14] was under 1000 nM and the IC50 [15] was 17.3 nM.

For `Cn1cc(-c2ccc(-c3cncc(Cl)c3N3CCC4(CCNC4=O)CC3)cc2)cn1` [CCT251545, reference compound], the IC50 [15] was 4.2 nM and the IC50 [16] was 14.4 nM.

In the case of `N#CC[C@H](C1CCCC1)n1cc(-c2ncnc3[nH]ccc23)cn1` [Ruxolitinib, reference compound], the “STAT5 S726 phosphorylation” value [17] is reported as “unaffected” and the “STAT5 Y694 phosphorylation” value [17] is reported as “inhibition”.

For `CN(C)[C@H]1C[C@@]23CC[C@@]4(O2)C(=CC[C@]2(C)[C@@H](c5ccc6ccncc6c5)CC[C@H]24)C=C3[C@@H](O)[C@@H]1O` [CA, Cortistatin A], the “sensitivity of MOLM-14 cell line to treatment” value [18] is given as “sensitive”.

For `CN1CC[C@H](c2c(O)cc(O)c3c(=O)cc(-c4ccccc4Cl)oc23)[C@H](O)C1` [Flavopiridol, reference compound], the “RNAP II CTD phosphorylation at S2 and S5” value [19] was “active”.
